The source of these data is PMC12914960, “Repurposing a detrimental antibody epitope as targeted therapeutics for sepsis and rheumatoid arthritis” (Military Medical Research, 2026).

“And” between values parts separate entries of the source, which are not always exact repeats. Identical values can stand only once. Where a SMILES comes first, the peptide text is derived from it.

Series [1] has as its system CLP-induced sepsis in BALB/c mice. In words: Septic survival after cecal ligation and puncture (CLP). The series is classed as in vivo, mouse. The settings on record: i.p. The method, then:
Experimental sepsis was induced in BALB/c mice via CLP as previously described. […] The animals were randomly assigned to the control vehicle (n = 10 or n = 20) or experimental groups (n = 10 or n = 20). P2 (5.0 mg/kg), P2-1 (0.1 mg/kg or 1.0 mg/kg), or tetranectin N-terminal deletion mutant (ΔTN) (1.0 mg/kg) were administered intraperitoneally (i.p.) at the indicated time points, and survival rates were monitored. To elucidate P2-1’s protective mechanisms, a separate group of BALB/c mice (n = 4) underwent CLP and received P2-1 (1.0 mg/kg) at 2 h and 20 h post-CLP. At 24 h post-CLP, the animals were euthanized, blood was collected, and serum cytokines and chemokines were measured via murine cytokine antibody arrays as previously described. More details are presented in Additional file 1: Methods.
For these preclinical studies, animals were random ly assigned to experimental groups and treated with P2, P2-1, or a pCTS-L-neutralizing mAb2 according to the indicated dosing regimens. Outcomes, including septic survival rates, arthritis severity, pain sensitivity, and joint tissue histology scores, were collected under blinded experiment al conditions. The study d esign and sample si zes fo r each exp eriment are d etailed in the figure legends. No data, including outlier values, were excluded. For skewed data, outliers were defined via the interquartile range (IQR) method as any value below Q 1 –(1.5 × IQR) or above Q 3 + (1.5 × IQR). For normally distributed data, outliers were defined via the Z-score method as any value with an absolute Z-score greater than 2 or 3. The primary data are reported in Additional file 4. All the reagent sources are listed in Additional file 1: Table S1 .
Cecal ligation and puncture (CLP) sepsis model […]
screening. c Expression and purification of recombinant full-length human TN (residues 1 – 181) and its N-terminal deletion mutant ( ΔTN, residues 45 – 181). […] Recombinant Δ TN was given intraperitoneally at 24 h and 48 h post-C L P, and animal survival rates were monitored. *P < 0.0 5. […]

Series [2] relates to CAIA-induced joint cytokines and chemokines. Put plainly: Cytokine antibody arrays of joint tissue of CAIA mice. Details: VCAM1 / sTNFRI / sTNFRII / MIP-1gamma / MIP2 / P-selectin: unit not given here. The series is classed as in vivo, mouse. The method, then:
The levels of cytokines and chemokines in mouse serum and joint tissue lysates, or human PBMC culture supernatants, were determined via murine or human cytokine antibody arrays (e.g., Cat. #AAM-CYM-3–8 or Cat. #AAH-CYT-3–8, RayBiotech Inc., Norcross, GA, USA) as previously described. For the sepsis model, blood samples were collected from the mice (n = 4) at 24 h post-CLP. For the CAIA model, soft tissues from the hindpaw and ankle joints were carefully harvested from normal (n = 2) and CAIA (n = 4) mice using a previously established protocol. Briefly, 0.5 g of fresh soft tissue was cut into 3 mm pieces and mixed with 400 µl of a hypertonic solution (500 ml of PBS with 4.5 g of NaCl and 2 × protease inhibitor cocktail) in a 10 ml syringe. Mechanical extrusion, involving 30 rapid back-and-forth movements of the plunger, was then performed. The expelled extracellular fluid was collected, immediately aliquoted, and stored at −20 °C until analysis. Cell-conditioned medium was collected from PBMC cultures after 16 h of stimulation. Arrays were performed according to the manufacturer’s protocol, followed by chemiluminescent detection and densitometric quantification as previously described.
Fig. S5 Representative cytokine antibody arrays depicting the effect of P2- 1 on collagen antibody- induced
arthritis (CAIA)- induced joint inflammation. Representative images from cyt okine antibody arrays of j oint
tissue lysates from 4 vehicle-treated CAIA mice and 4 P2-1- treated CAIA mice (harvested on Day 10). […]

A short description of series [3]: Water solubility. Type of series: physicochemical. The conditions noted are these: qualitative, text in Fig. 1d.
Where [4] appears, read: CAIA + P2-1, joint tissue Day 10, individual values, P = 0.00077753.

Turning to `CCCC[C@H](NC(=O)[C@H](Cc1c[nH]cn1)NC(=O)[C@@H](NC(=O)[C@H](CCCCN)NC(=O)[C@@H](N)[C@@H](C)O)C(C)C)C(=O)N[C@@H](CCCCN)C(=O)N[C@@H](CO)C(=O)N[C@@H](Cc1ccccc1)C(=O)N[C@@H](CC(C)C)C(=O)N[C@@H](C)C(=O)N[C@@H](Cc1ccccc1)C(=O)N[C@@H](CCC(N)=O)C(=O)N[C@H](C(=O)N[C@@H](CCCCN)C(=O)N[C@H](C(=O)O)[C@@H](C)O)[C@@H](C)O` [P2-1] (HELM PEPTIDE1{T.K.V.H.[Nle].K.S.F.L.A.F.Q.T.K.T}$$$$V2.0; N-terminus and C-terminus assumed), the “septic survival, in words” value in series [1] (P2-1 0.1 mg/kg at 2, 20, 28, 44, and 52 h post-CLP) is given as “conferred significant protection against sepsis”. For the same compound, the “septic survival, in words” value in series [1] (P2-1 1.0 mg/kg at 24 h and 48 h post-CLP) is on record as “potent protection against lethal sepsis even with delayed therapeutic administration”. Also, in series [2] (CAIA + P2-1, joint tissue Day 10, individual values, P = 0.0007706), the VCAM1 is 4 and 4.5 and 8.2 and 10.3 and 3.3 and 1.2 and 0.7. In series [2] (setting [4]), the sTNFRI was 23.4 and 20.4 and 17.4 and 17 and 24.9 and 22.3 and 40 and 36.8; the sTNFRII was 12.4 and 11.7 and 6.5 and 5.7 and 3.2 and 2.8 and 5.8 and 5.9. Also, in series [2] (CAIA + P2-1, joint tissue Day 10, individual values, P = 0.00163), the MIP-1gamma is 39.6 and 44.2 and 29 and 33.7 and 41.8 and 44.8 and 49.9 and 50.4. In addition, the MIP2 in series [2] (CAIA + P2-1, joint tissue Day 10, individual values, P = 0.02067) was 2.5 and 2.7 and 4.3 and 4.8 and 5.9 and 7.2 and 5.1 and 5.2. For the same compound, the P-selectin in series [2] (CAIA + P2-1, joint tissue Day 10, individual values, P = 0.04584) was 3.6 and 4 and 3.4 and 5.3 and 5.6 and 7.5 and 8. Further, the “joint inflammation, in words” value in series [2] (P2-1 prophylactic) was “significantly reducing joint levels of sTNFRI and sTNFRII, the chemokine MIP-1γ/CCL9, and VCAM-1”. Moreover, the “joint tissue inflammation, in words” value in series [2] (P2-1 therapeutic, sTNFRI, sTNFRII, MIP-1γ/CCL9, VCAM-1, Day 10) was “significantly reduced CAIA-induced joint tissue inflammation”. For the same compound, the Water solubility entry in series [3] is “Good water solubility”.
